Reference: ChEMBL document CHEMBL1201862, “PubChem BioAssay data set” (2004)
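Each compound was tested at five concentrations against cells in 96-well plates for 48 hours. GI50: concentration for 50% inhibition of growth.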 Calls of active or inactive are those of the source. Cut-off read from the data, not from the text of the source: active = GI50 up to about 1.1 µM and inactive = higher. Where a SMILES comes first, the peptide text is derived from it. The star is where a group is joined. Boc = CC(C)(C)OC(=O)*

How the values were obtained:
Experiment in all cases: NCI-60 cell line screen, 48 h
BT-549 = test system: BT-549
OVCAR-4 = test system: OVCAR-4
SF-268 = test system: SF-268
OVCAR-8 = test system: OVCAR-8
OVCAR-3 = test system: OVCAR-3
DU-145 = test system: DU-145
LOX IMVI = test system: LOX IMVI
NCI-H460 = test system: NCI-H460
NCI-H23 = test system: NCI-H23
SNB-19 = test system: SNB-19
OVCAR-5 = test system: OVCAR-5
Malme-3M = test system: Malme-3M
U-251 = test system: U-251
SK-MEL-5 = test system: SK-MEL-5
ACHN = test system: ACHN
NCI-H522 = test system: NCI-H522
M14 = test system: M14
MCF7 = test system: MCF7
CAKI-1 = test system: CAKI-1
HT-29 = test system: HT-29
K562 = test system: K562
SNB-75 = test system: SNB-75
A498 = test system: A498
IGROV-1 = test system: IGROV-1
A549 = test system: A549
UACC-62 = test system: UACC-62
UACC-257 = test system: UACC-257
HOP-62 = test system: HOP-62
MDA-N = test system: MDA-N
786-0 = test system: 786-0
HCT-116 = test system: HCT-116
SW-620 = test system: SW-620
MDA-MB-435 = test system: MDA-MB-435
HCT-15 = test system: HCT-15
UO-31 = test system: UO-31
SK-MEL-2 = test system: SK-MEL-2
MDA-MB-231 = test system: MDA-MB-231
NCI-H226 = test system: NCI-H226
HCC 2998 = test system: HCC 2998
MOLT-4 = test system: MOLT-4
PC-3 = test system: PC-3
RPMI-8226 = test system: RPMI-8226
CCRF-CEM = test system: CCRF-CEM
SR = test system: SR
HL-60 = test system: HL-60
TK-10 = test system: TK-10
SK-MEL-28 = test system: SK-MEL-28
SN12C = test system: SN12C
COLO 205 = test system: COLO 205
EKVX = test system: EKVX
SF-539 = test system: SF-539
RXF 393 = test system: RXF 393
KM12 = test system: KM12
NCI/ADR-RES = test system: NCI/ADR-RES
SF-295 = test system: SF-295
HOP-92 = test system: HOP-92
SK-OV-3 = test system: SK-OV-3

COC(=O)C(Cc1c[nH]c2ccccc12)NC(=O)C(Cc1c[nH]c2ccccc12)NC(=O)C(Cc1c[nH]c2ccccc12)NC(=O)C(Cc1c[nH]c2ccccc12)NC(=O)C(Cc1c[nH]c2ccccc12)NC(=O)C(Cc1c[nH]c2ccccc12)NC(=O)C(Cc1c[nH]c2ccccc12)NC(=O)C(Cc1c[nH]c2ccccc12)NC(=O)OC(C)(C)C (stereo not drawn) (Boc-WWWWWWWW-OMe; configuration not given here)
GI50 (BT-549): > 100 µM (inactive) | GI50 (OVCAR-4): > 100 µM (inactive) | GI50 (SF-268): > 100 µM (inactive) | GI50 (OVCAR-8): > 100 µM (inactive) | GI50 (OVCAR-3): 83.6 µM (inactive) | GI50 (DU-145): 35.5 µM (inactive) | GI50 (LOX IMVI): 63.5 µM (inactive) | GI50 (NCI-H460): 67.6 µM (inactive) | GI50 (NCI-H23): 29 µM (inactive) | GI50 (SNB-19): 46.2 µM (inactive) | GI50 (OVCAR-5): 37.8 µM (inactive) | GI50 (Malme-3M): 53.2 µM (inactive) | GI50 (U-251): 74.6 µM (inactive) | GI50 (SK-MEL-5): 24.3 µM (inactive) | GI50 (ACHN): > 100 µM (inactive) | GI50 (NCI-H522): 17.4 µM (inactive) | GI50 (M14): 12.6 µM (inactive) | GI50 (MCF7): > 100 µM (inactive) | GI50 (CAKI-1): > 100 µM (inactive) | GI50 (HT-29): > 100 µM (inactive) | GI50 (K562): 31.8 µM (inactive) | GI50 (SNB-75): > 100 µM (inactive) | GI50 (A498): 20 µM (inactive) | GI50 (IGROV-1): 19.8 µM (inactive) | GI50 (A549): 86.5 µM (inactive) | GI50 (UACC-62): 28.5 µM (inactive) | GI50 (UACC-257): 43.5 µM (inactive) | GI50 (HOP-62): > 100 µM (inactive) | GI50 (MDA-N): 39.1 µM (inactive) | GI50 (786-0): > 100 µM (inactive) | GI50 (HCT-116): 15.3 µM (inactive) | GI50 (SW-620): > 100 µM (inactive) | GI50 (MDA-MB-435): > 100 µM (inactive) | GI50 (HCT-15): > 100 µM | GI50 (UO-31): 53.7 µM (inactive) | GI50 (SK-MEL-2): 33.6 µM (inactive) | GI50 (MDA-MB-231): > 100 µM (inactive) | GI50 (NCI-H226): 49.3 µM (inactive) | GI50 (HCC 2998): > 100 µM (inactive) | GI50 (MOLT-4): 44.5 µM (inactive) | GI50 (PC-3): 65.5 µM (inactive) | GI50 (RPMI-8226): 57.9 µM (inactive) | GI50 (CCRF-CEM): 34.4 µM (inactive) | GI50 (SR): 59.7 µM (inactive) | GI50 (HL-60): 24.8 µM (inactive) | GI50 (TK-10): 34 µM (inactive) | GI50 (SK-MEL-28): 33.3 µM (inactive) | GI50 (SN12C): 72.8 µM (inactive)

Cc1ccc(-c2nc(Cc3n[nH]c(-c4ccc(C)cc4)n3)n[nH]2)cc1
GI50 (COLO 205): > 100 µM (inactive) | GI50 (BT-549): > 100 µM (inactive) | GI50 (OVCAR-4): 3.75 µM (inactive) | GI50 (SF-268): 6.14 µM (inactive) | GI50 (OVCAR-8): 10.3 µM (inactive) | GI50 (OVCAR-3): > 100 µM (inactive) | GI50 (DU-145): > 100 µM (inactive) | GI50 (LOX IMVI): > 100 µM (inactive) | GI50 (NCI-H23): 18.3 µM (inactive) | GI50 (SNB-19): 44.2 µM (inactive) | GI50 (OVCAR-5): > 100 µM (inactive) | GI50 (U-251): 3.71 µM (inactive) | GI50 (EKVX): > 100 µM (inactive) | GI50 (SK-MEL-5): > 100 µM (inactive) | GI50 (ACHN): 6.38 µM (inactive) | GI50 (NCI-H522): 2.99 µM (inactive) | GI50 (M14): > 100 µM (inactive) | GI50 (MCF7): > 100 µM (inactive) | GI50 (SF-539): > 100 µM (inactive) | GI50 (HT-29): > 100 µM (inactive) | GI50 (K562): > 100 µM (inactive) | GI50 (RXF 393): 21.1 µM (inactive) | GI50 (SNB-75): 3.2 µM (inactive) | GI50 (IGROV-1): > 100 µM (inactive) | GI50 (KM12): > 100 µM (inactive) | GI50 (NCI/ADR-RES): 29.6 µM (inactive) | GI50 (A549): > 100 µM (inactive) | GI50 (SF-295): > 100 µM (inactive) | GI50 (UACC-62): 4.86 µM (inactive) | GI50 (UACC-257): > 100 µM (inactive) | GI50 (HOP-62): 29 µM (inactive) | GI50 (MDA-N): > 100 µM (inactive) | GI50 (786-0): > 100 µM (inactive) | GI50 (HCT-116): 36.1 µM (inactive) | GI50 (HOP-92): > 100 µM (inactive) | GI50 (SW-620): > 100 µM (inactive) | GI50 (MDA-MB-435): > 100 µM (inactive) | GI50 (HCT-15): > 100 µM | GI50 (UO-31): > 100 µM (inactive) | GI50 (SK-MEL-2): > 100 µM (inactive) | GI50 (MDA-MB-231): > 100 µM (inactive) | GI50 (HCC 2998): > 100 µM (inactive) | GI50 (MOLT-4): > 100 µM (inactive) | GI50 (PC-3): > 100 µM (inactive) | GI50 (RPMI-8226): > 100 µM (inactive) | GI50 (CCRF-CEM): > 100 µM (inactive) | GI50 (SK-OV-3): > 100 µM (inactive) | GI50 (TK-10): > 100 µM (inactive) | GI50 (SK-MEL-28): > 100 µM (inactive) | GI50 (SN12C): > 100 µM (inactive)
